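Cultured in 96-well plates, cells were exposed to test compound for 48 hours across five concentrations. GI50 is the concentration that inhibits growth by half.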 Activity calls are given as the source filed them. Rule as the data show it: active = GI50 up to about 1.1 µM and inactive = higher.
Experiments:
Assay in all cases: NCI-60 cell line screen, 48 h
M14 = system: M14
HCT-116 = system: HCT-116
MCF7 = system: MCF7
COLO 205 = system: COLO 205
NCI-H522 = system: NCI-H522
RPMI-8226 = system: RPMI-8226
K562 = system: K562
LOX IMVI = system: LOX IMVI
SK-MEL-5 = system: SK-MEL-5
NCI-H460 = system: NCI-H460
U-251 = system: U-251
NCI-H23 = system: NCI-H23
DU-145 = system: DU-145
BT-549 = system: BT-549
UACC-62 = system: UACC-62
HOP-62 = system: HOP-62
OVCAR-8 = system: OVCAR-8
Hs-578T = system: Hs-578T
HCC 2998 = system: HCC 2998
RXF 393 = system: RXF 393

Compound | GI50 (M14) | GI50 (HCT-116) | GI50 (MCF7) | GI50 (COLO 205) | GI50 (NCI-H522) | GI50 (RPMI-8226) | GI50 (K562) | GI50 (LOX IMVI) | GI50 (SK-MEL-5) | GI50 (NCI-H460) | GI50 (U-251) | GI50 (NCI-H23) | GI50 (DU-145) | GI50 (BT-549) | GI50 (UACC-62) | GI50 (HOP-62) | GI50 (OVCAR-8) | GI50 (Hs-578T) | GI50 (HCC 2998) | GI50 (RXF 393)
CCOP(=O)(OCC)C(Cc1ccccc1)N=C(c1ccccc1)c1ccccc1 (stereo not drawn) | 15.3 µM (inactive) | 14.6 µM (inactive) | 13.9 µM (inactive) | 14.3 µM (inactive) | 12.4 µM (inactive) | 25.4 µM (inactive) | 7.29 µM (inactive) | 11.6 µM (inactive) | 12.9 µM (inactive) | 14.8 µM (inactive) | 13.3 µM (inactive) | 12.7 µM (inactive) | 20.9 µM (inactive) | 13.2 µM (inactive) | 13.3 µM (inactive) | 17.6 µM (inactive) | 16.3 µM (inactive) | 11.2 µM (inactive) |  | 
CCOC(=O)C1(Cc2ccc3c(c2)CCC3)Cc2cc3c(cc2C1=O)CCC3 (stereo not drawn) | > 57.4 µM (inactive) | 16.7 µM (inactive) | 33.7 µM (inactive) | 41.7 µM (inactive) | 47.8 µM (inactive) | 19.2 µM (inactive) | 9.95 µM (inactive) | > 71.6 µM (inactive) | 20.1 µM (inactive) | 41.9 µM (inactive) | > 78 µM (inactive) | 49.4 µM (inactive) | 75.5 µM (inactive) | 76.7 µM (inactive) | > 100 µM (inactive) | > 100 µM (inactive) | > 91.2 µM (inactive) | > 100 µM (inactive) | 62.5 µM (inactive) | 
c1ccc2c(c1)ccc1nc(-c3ccc4c(c3)OCO4)c3c(c12)CCCC3 | 28.7 µM (inactive) | 15.8 µM (inactive) | 24.5 µM (inactive) | 20.3 µM (inactive) |  | 15.5 µM (inactive) | 16.3 µM (inactive) |  |  | 11.6 µM (inactive) | 7.6 µM (inactive) | 13.8 µM (inactive) |  | 17 µM (inactive) | 18.8 µM (inactive) | 41.9 µM (inactive) | 20.2 µM (inactive) | 2.39 µM (inactive) | 31.7 µM (inactive) | 
CCn1c2ccccc2c2ccc(C3C4C(=O)N(c5cccc6ccccc56)C(=O)C4ON3C(C(N)=O)c3ccccc3)cc21 (stereo not drawn) | 19.1 µM (inactive) | 13 µM (inactive) | 8.38 µM (inactive) | 10.1 µM (inactive) | > 25 µM (inactive) |  | 14.8 µM (inactive) | 13.2 µM (inactive) | 14.2 µM (inactive) | 12.9 µM (inactive) | 10.8 µM (inactive) | 24 µM (inactive) | 14.8 µM (inactive) | 14.9 µM (inactive) | 9.04 µM (inactive) | > 25 µM (inactive) | > 25 µM (inactive) | > 25 µM (inactive) |  | 9.89 µM (inactive)
c1cc(CSP234N5CCN2CCN3CCN4CC5)cc(CSP234N5CCN2CCN3CCN4CC5)c1 | 18.6 µM (inactive) | > 100 µM (inactive) | 25.8 µM (inactive) | 23 µM (inactive) | 16.9 µM (inactive) | 14.5 µM (inactive) | < 0.01 µM (active) | 16.1 µM (inactive) | 16.3 µM (inactive) | 26.6 µM (inactive) | 21.9 µM (inactive) | 41.2 µM (inactive) | > 100 µM (inactive) | 19.2 µM (inactive) | 16.8 µM (inactive) | 28.6 µM (inactive) | 18.6 µM (inactive) | 21.9 µM (inactive) | 19.3 µM (inactive) | 
COc1cc(-c2ccccc2N)c2cccnc2c1OC | 6.28 µM (inactive) | 1.36 µM (inactive) | 3.84 µM (inactive) | 6.38 µM (inactive) | 3.59 µM (inactive) | 3.4 µM (inactive) | 4.78 µM (inactive) | 3.4 µM (inactive) | 13 µM (inactive) | 11.1 µM (inactive) | 4.21 µM (inactive) | 4.94 µM (inactive) | 2.89 µM (inactive) | 9.14 µM (inactive) | 11.7 µM (inactive) | 5.26 µM (inactive) |  | 3.05 µM (inactive) |  | 15.2 µM (inactive)
COc1ccc(CCn2ccc(=O)c(O)c2C)cc1OC | 12.2 µM (inactive) | 37.2 µM (inactive) | 20.5 µM (inactive) | 26.7 µM (inactive) |  | 34 µM (inactive) | 37.1 µM (inactive) | 25.5 µM (inactive) | 13.5 µM (inactive) | 5.81 µM (inactive) | 9.64 µM (inactive) | 27.9 µM (inactive) | 12.4 µM (inactive) | 52.4 µM (inactive) |  | 17.5 µM (inactive) | 16.9 µM (inactive) | < 0.01 µM (active) |  | 
c1ccc(C2C3=C(CCCC3)Nc3nnnn32)cc1 (stereo not drawn) | > 100 µM (inactive) | > 100 µM (inactive) | 13.8 µM (inactive) | > 100 µM (inactive) |  |  | 32.4 µM (inactive) | > 100 µM (inactive) | 48.9 µM (inactive) | 12.9 µM (inactive) | > 100 µM (inactive) | > 100 µM (inactive) | > 100 µM (inactive) | 34.8 µM (inactive) | 56.2 µM (inactive) | > 100 µM (inactive) | > 100 µM (inactive) | 64 µM (inactive) |  | 0.226 µM (active)
CCOC(=O)c1nc2ccc(C(F)(F)F)cc2nc1NCc1ccc(F)cc1 | 48.6 µM (inactive) | 35.9 µM (inactive) | 30.9 µM (inactive) | 27 µM (inactive) | 18.1 µM (inactive) | 23.5 µM (inactive) | 24.5 µM (inactive) | 26.1 µM (inactive) |  | 19.2 µM (inactive) | 35.7 µM (inactive) | 27.5 µM (inactive) | 46.5 µM (inactive) |  | 23.1 µM (inactive) | 47.3 µM (inactive) | 30.9 µM (inactive) | 21.5 µM (inactive) | 24.8 µM (inactive) | 37.2 µM (inactive)
CCOC(=O)C(=CNc1ccc(F)c(F)c1)C(=O)OCC | > 100 µM (inactive) | > 100 µM (inactive) | > 100 µM (inactive) | > 100 µM (inactive) | 81.7 µM (inactive) | 64.1 µM (inactive) | 39.4 µM (inactive) | > 100 µM (inactive) | > 100 µM (inactive) | > 100 µM (inactive) | > 100 µM (inactive) | > 100 µM (inactive) | > 100 µM (inactive) |  |  | > 100 µM (inactive) | > 100 µM (inactive) | > 100 µM (inactive) | > 100 µM (inactive) | > 100 µM (inactive)
COC(=O)C(CCSc1ccccc1)C(=O)OC | > 100 µM (inactive) | > 100 µM (inactive) | > 100 µM (inactive) | > 100 µM (inactive) | 93.8 µM (inactive) | > 100 µM (inactive) |  |  | > 100 µM (inactive) | > 100 µM (inactive) | > 100 µM (inactive) | > 100 µM (inactive) |  | > 100 µM (inactive) | > 100 µM (inactive) | > 100 µM (inactive) | > 100 µM (inactive) | 1.58 µM (inactive) | > 100 µM (inactive) | > 100 µM (inactive)
Cc1c(O)c(=O)ccn1CCc1ccc(O)cc1 | 17.3 µM (inactive) | 35.7 µM (inactive) | 23.9 µM (inactive) | 31.5 µM (inactive) |  | 14.7 µM (inactive) | 32.7 µM (inactive) | 20.5 µM (inactive) | 21.3 µM (inactive) | 17.1 µM (inactive) | 13.9 µM (inactive) | 35.7 µM (inactive) | 24.9 µM (inactive) | > 100 µM (inactive) | 0.615 µM (active) | 22.1 µM (inactive) | 31.3 µM (inactive) | 24.3 µM (inactive) |  | 
O=C(CSc1nc2ccc(I)cc2c(=O)n1Cc1ccccc1)Nc1ccccc1 | 52.1 µM (inactive) | 42.1 µM (inactive) | 50.6 µM (inactive) | > 100 µM (inactive) | 16 µM (inactive) | 88.3 µM (inactive) | 39.5 µM (inactive) | 50.7 µM (inactive) | 32.1 µM (inactive) |  | 14.3 µM (inactive) | 69.2 µM (inactive) | 29.9 µM (inactive) | 20 µM (inactive) | 46.6 µM (inactive) | 5.7 µM (inactive) | 6.75 µM (inactive) | 3.65 µM (inactive) |  | 10 µM (inactive)
c1ccc(NNC2=NCCN2)cc1 | > 100 µM (inactive) | > 100 µM (inactive) | > 100 µM (inactive) | > 100 µM (inactive) | > 100 µM (inactive) | > 100 µM (inactive) | > 100 µM (inactive) | > 100 µM (inactive) | > 100 µM (inactive) | > 100 µM (inactive) | > 100 µM (inactive) | > 100 µM (inactive) | > 100 µM (inactive) | > 100 µM (inactive) | > 100 µM (inactive) | > 100 µM (inactive) | > 100 µM (inactive) | > 100 µM (inactive) |  | 
O=C(c1ccccc1)N1CCN(C(=S)NC2CCCCC2)C1=S | 16.8 µM (inactive) | 16.1 µM (inactive) | 22.8 µM (inactive) | 18.5 µM (inactive) | 15.8 µM (inactive) |  | 33.3 µM (inactive) | 16 µM (inactive) | 17.4 µM (inactive) | 21.4 µM (inactive) | 9.89 µM (inactive) | 15.9 µM (inactive) | 21.8 µM (inactive) | 17.1 µM (inactive) | 19.3 µM (inactive) | 18 µM (inactive) | 17 µM (inactive) | 19 µM (inactive) | 16.4 µM (inactive) | 
O=C(CCCn1ccnc1[N+](=O)[O-])NCCn1ccnc1[N+](=O)[O-] | > 100 µM (inactive) | > 100 µM (inactive) | > 100 µM (inactive) | > 100 µM (inactive) | > 100 µM (inactive) | > 100 µM (inactive) | > 100 µM (inactive) | > 100 µM (inactive) | > 100 µM (inactive) | > 100 µM (inactive) | > 100 µM (inactive) | > 100 µM (inactive) | > 100 µM (inactive) | > 100 µM (inactive) | > 100 µM (inactive) | > 100 µM (inactive) | > 100 µM (inactive) | > 100 µM (inactive) | > 100 µM (inactive) | 

Reference: ChEMBL document CHEMBL1201862, “PubChem BioAssay data set” (2004)
